Converted amounts (≈) assume the structure as drawn. Non-standard residues stand in square brackets, D forms with d. Residues, ends and D or L forms follow the SMILES beside them. ξ: configuration not given here. Pro(3ξ,4ξ-(CH2)4) = O=C(O)[C@H]1NCC2CCCCC21; Tic = O=C(O)[C@@H]1Cc2ccccc2CN1; dTic = O=C(O)[C@H]1Cc2ccccc2CN1; Ahx = NCCCCCC(=O)O; GABA = NCCCC(=O)O; βAla = NCCC(=O)O
Experiments:
[1] = test system: Mycolicibacterium fortuitum; assay: Antibacterial activity against Mycobacterium ranae; assay type: functional
Staphylococcus aureus = assay: Antibacterial activity against Staphylococcus aureus; assay type: functional

| Compound | MIC [1] | MIC (Staphylococcus aureus) |
| --- | --- | --- |
| CC(=O)NCCCCCC(=O)N[C@@H](Cc1ccccc1)C(=O)N1Cc2ccccc2C[C@H]1C(=O)N1CC2CCCCC2[C@H]1C(=O)NCCCCCC(=O)N[C@@H](CCCCN)C(=O)N1Cc2ccccc2C[C@H]1C(=O)N1CC2CCCCC2[C@H]1C(=O)NCCCCCC(=O)N[C@@H](Cc1ccccc1)C(=O)N1Cc2ccccc2C[C@H]1C(=O)N1CC2CCCCC2[C@H]1C(=O)NCCCCCC(=O)N[C@@H](CCCCN)C(=O)N1Cc2ccccc2C[C@H]1C(=O)N[C@@H](CCCCN)C(=O)N[C@@H](CCCCN)C(=O)N[C@@H](CCCCN)C(=O)N[C@@H](CCCCN)C(N)=O (some centres undefined) (Ac-[Ahx]F[Tic][Pro(3ξ,4ξ-(CH2)4)][Ahx]K[Tic][Pro(3ξ,4ξ-(CH2)4)][Ahx]F[Tic][Pro(3ξ,4ξ-(CH2)4)][Ahx]K[Tic]KKKK-NH2) | 3 µM (≈ 8 µg/mL) | 10 µM (≈ 26.7 µg/mL) |
| CC(=O)NCCCC(=O)N[C@@H](Cc1ccccc1)C(=O)N1Cc2ccccc2C[C@H]1C(=O)N1CC2CCCCC2[C@H]1C(=O)NCCCC(=O)N[C@@H](CCCCN)C(=O)N1Cc2ccccc2C[C@H]1C(=O)N1CC2CCCCC2[C@H]1C(=O)NCCCC(=O)N[C@@H](Cc1ccccc1)C(=O)N1Cc2ccccc2C[C@H]1C(=O)N1CC2CCCCC2[C@H]1C(=O)NCCCC(=O)N[C@@H](CCCCN)C(=O)N1Cc2ccccc2C[C@H]1C(=O)N[C@@H](CCCCN)C(=O)N[C@@H](CCCCN)C(=O)N[C@@H](CCCCN)C(=O)N[C@@H](CCCCN)C(N)=O (some centres undefined) (Ac-[GABA]F[Tic][Pro(3ξ,4ξ-(CH2)4)][GABA]K[Tic][Pro(3ξ,4ξ-(CH2)4)][GABA]F[Tic][Pro(3ξ,4ξ-(CH2)4)][GABA]K[Tic]KKKK-NH2) | 10 µM (≈ 25.5 µg/mL) | 100 µM (≈ 255 µg/mL) |
| CC(=O)NCCCC(=O)N[C@@H](Cc1ccccc1)C(=O)N1Cc2ccccc2C[C@H]1C(=O)N1CC2CCCCC2[C@H]1C(=O)NCCCC(=O)N[C@@H](CCCCN)C(=O)N1Cc2ccccc2C[C@H]1C(=O)N1CC2CCCCC2[C@H]1C(=O)NCCCC(=O)N[C@@H](Cc1ccccc1)C(=O)N1Cc2ccccc2C[C@H]1C(=O)N1CC2CCCCC2[C@H]1C(=O)NCCCC(=O)N[C@@H](CCCCN)C(=O)N1Cc2ccccc2C[C@H]1C(=O)N[C@@H](CCCCN)C(=O)N[C@@H](CCCCN)C(=O)N[C@@H](CCCCN)C(=O)N[C@@H](CCCCN)C(=O)N[C@@H](CCCCN)C(N)=O (some centres undefined) (Ac-[GABA]F[Tic][Pro(3ξ,4ξ-(CH2)4)][GABA]K[Tic][Pro(3ξ,4ξ-(CH2)4)][GABA]F[Tic][Pro(3ξ,4ξ-(CH2)4)][GABA]K[Tic]KKKKK-NH2) | 3 µM (≈ 8.04 µg/mL) | 30 µM (≈ 80.4 µg/mL) |
| CC(=O)NCCC(=O)N[C@@H](Cc1ccccc1)C(=O)N1Cc2ccccc2C[C@H]1C(=O)N1CC2CCCCC2[C@H]1C(=O)NCCC(=O)N[C@@H](CCCCN)C(=O)N1Cc2ccccc2C[C@H]1C(=O)N1CC2CCCCC2[C@H]1C(=O)NCCC(=O)N[C@@H](Cc1ccccc1)C(=O)N1Cc2ccccc2C[C@@H]1C(=O)N1CC2CCCCC2[C@H]1C(=O)NCCC(=O)N[C@@H](CCCCN)C(=O)N1Cc2ccccc2C[C@H]1C(=O)N[C@@H](CCCCN)C(=O)N[C@@H](CCCCN)C(=O)N[C@@H](CCCCN)C(=O)N[C@@H](CCCCN)C(N)=O (some centres undefined) (Ac-[βAla]F[Tic][Pro(3ξ,4ξ-(CH2)4)][βAla]K[Tic][Pro(3ξ,4ξ-(CH2)4)][βAla]F[dTic][Pro(3ξ,4ξ-(CH2)4)][βAla]K[Tic]KKKK-NH2) | 1 µM (≈ 2.5 µg/mL) | 10 µM (≈ 25 µg/mL) |
| NCCCC[C@H](NC(=O)[C@H](CCCCN)NC(=O)[C@H](CCCCN)NC(=O)[C@H](CCCCN)NC(=O)[C@@H]1Cc2ccccc2CN1C(=O)[C@H](CCCCN)NC(=O)CNC(=O)[C@@H]1C2CCCCC2CN1C(=O)[C@@H]1Cc2ccccc2CN1C(=O)[C@H](Cc1ccccc1)NC(=O)CNC(=O)[C@@H]1C2CCCCC2CN1C(=O)[C@@H]1Cc2ccccc2CN1C(=O)[C@H](CCCCN)NC(=O)CNC(=O)[C@@H]1C2CCCCC2CN1C(=O)[C@@H]1Cc2ccccc2CN1C(=O)[C@H](Cc1ccccc1)NC(=O)CN)C(N)=O (some centres undefined) (H-GF[Tic][Pro(3ξ,4ξ-(CH2)4)]GK[Tic][Pro(3ξ,4ξ-(CH2)4)]GF[Tic][Pro(3ξ,4ξ-(CH2)4)]GK[Tic]KKKK-NH2) | 10 µM (≈ 24 µg/mL) | 10 µM (≈ 24 µg/mL) |
| CC(C)C[C@H](NC(=O)[C@@H](N)CCCCN)C(=O)N1Cc2ccccc2C[C@H]1C(=O)N1CC2CCCCC2[C@H]1C(=O)NCC(=O)N[C@@H](CCCCN)C(=O)N1Cc2ccccc2C[C@H]1C(=O)N1CC2CCCCC2[C@H]1C(=O)NCC(=O)N[C@@H](Cc1ccccc1)C(=O)N1Cc2ccccc2C[C@H]1C(=O)N1CC2CCCCC2[C@H]1C(=O)NCC(=O)N[C@@H](CCCCN)C(=O)N1Cc2ccccc2C[C@H]1C(=O)N[C@@H](CCCCN)C(=O)N[C@@H](CCCCN)C(=O)N[C@@H](CCCCN)C(=O)N[C@@H](CCCCN)C(N)=O (some centres undefined) (H-KL[Tic][Pro(3ξ,4ξ-(CH2)4)]GK[Tic][Pro(3ξ,4ξ-(CH2)4)]GF[Tic][Pro(3ξ,4ξ-(CH2)4)]GK[Tic]KKKK-NH2) | 3 µM (≈ 7.31 µg/mL) | 30 µM (≈ 73.1 µg/mL) |
| CC(C)C[C@H](NC(=O)[C@@H](N)CCCCN)C(=O)N1Cc2ccccc2C[C@H]1C(=O)N1CC2CCCCC2[C@H]1C(=O)N[C@@H](CCCCN)C(=O)N1Cc2ccccc2C[C@H]1C(=O)N1CC2CCCCC2[C@H]1C(=O)N[C@@H](Cc1ccccc1)C(=O)N1Cc2ccccc2C[C@H]1C(=O)N1CC2CCCCC2[C@H]1C(=O)N[C@@H](CCCCN)C(=O)N1Cc2ccccc2C[C@H]1C(=O)N1CC2CCCCC2[C@H]1C(=O)N[C@@H](Cc1ccccc1)C(=O)N1Cc2ccccc2C[C@H]1C(=O)N1CC2CCCCC2[C@H]1C(=O)N[C@@H](CCCCN)C(=O)N1Cc2ccccc2C[C@H]1C(=O)N1CC2CCCCC2[C@H]1C(=O)N[C@@H](CCCCN)C(=O)N[C@@H](CCCNC(=N)N)C(N)=O (some centres undefined) (H-KL[Tic][Pro(3ξ,4ξ-(CH2)4)]K[Tic][Pro(3ξ,4ξ-(CH2)4)]F[Tic][Pro(3ξ,4ξ-(CH2)4)]K[Tic][Pro(3ξ,4ξ-(CH2)4)]F[Tic][Pro(3ξ,4ξ-(CH2)4)]K[Tic][Pro(3ξ,4ξ-(CH2)4)]KR-NH2) | 30 µM (≈ 92.5 µg/mL) | 10 µM (≈ 30.8 µg/mL) |
